How the values were obtained:
RARγ = biological target: T1, RARγ (Homo sapiens, UniProt P13631); assay: Example 7: inhibition of RAR transactivation by ATRA, CV-1 cells; type: cell-based; conditions: equal doses of AGN 193109 and ATRA (10 nM ATRA)
T1 sequence (P13631 1-454): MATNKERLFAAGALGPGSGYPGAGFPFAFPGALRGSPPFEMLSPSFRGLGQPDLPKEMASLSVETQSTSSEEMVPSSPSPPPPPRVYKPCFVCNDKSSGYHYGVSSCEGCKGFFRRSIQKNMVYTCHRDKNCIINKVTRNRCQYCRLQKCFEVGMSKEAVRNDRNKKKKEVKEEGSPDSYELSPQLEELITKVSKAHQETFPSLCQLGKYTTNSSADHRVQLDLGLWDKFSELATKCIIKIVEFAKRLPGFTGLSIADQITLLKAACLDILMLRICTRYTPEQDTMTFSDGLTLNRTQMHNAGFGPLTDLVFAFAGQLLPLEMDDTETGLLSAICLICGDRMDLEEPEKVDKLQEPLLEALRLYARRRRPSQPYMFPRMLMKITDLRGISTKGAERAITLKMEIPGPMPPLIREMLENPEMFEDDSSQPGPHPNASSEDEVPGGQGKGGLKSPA

RARβ = biological target: T2, RARβ (Homo sapiens, UniProt P10826); assay: Transactivation in CV-1 cells, ΔMTV-TREp-Luc reporter; type: cell-based; set-up: expressed in transfected cells; host or cells: green monkey CV-1 cells; conditions: 10^−9 to 10^−6 M, 18 hours
T2 sequence (P10826 1-448 isoform P10826-2): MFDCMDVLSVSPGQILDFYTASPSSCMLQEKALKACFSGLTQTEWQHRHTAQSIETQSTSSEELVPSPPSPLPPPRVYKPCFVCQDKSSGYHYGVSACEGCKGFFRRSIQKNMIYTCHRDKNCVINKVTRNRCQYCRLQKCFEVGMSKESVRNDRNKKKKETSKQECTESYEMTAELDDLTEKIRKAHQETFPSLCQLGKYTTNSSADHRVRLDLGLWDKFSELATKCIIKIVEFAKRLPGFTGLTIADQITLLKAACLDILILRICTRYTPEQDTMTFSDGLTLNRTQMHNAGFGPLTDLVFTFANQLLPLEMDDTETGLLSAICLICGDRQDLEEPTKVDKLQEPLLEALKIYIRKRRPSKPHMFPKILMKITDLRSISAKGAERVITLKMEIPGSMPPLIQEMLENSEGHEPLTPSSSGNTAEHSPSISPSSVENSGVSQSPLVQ
Description: (§1) AGN 193109 was also tested for its ability to transactivate RARs in CV-1 cells transiently cotransfected with RAR expression vectors and a retinoid responsive reporter gene construct. Receptor expression vectors pRShRAR-α (Giguere et al. Nature 330:624 (1987)), pRShRAR-β (Benbrook et al. Nature 333:669 (1988)) and pRShRAR-γ (Ishikawa et al. Mol. Endocrinol. 4:837 (1990)) were separately cotransfected with the ΔMTV-TREp-Luc reporter plasmid. Use of this luciferase reporter plasmid has been disclosed by Heyman et al. in Cell 68:397 (1992). The ΔMTV-TREp-Luc plasmid is essentially identical to the ΔMTV-TREp-CAT reporter construct described by Umesono et al. in Nature 336:262 (1988), except that the chloramphenicol acetyltransferase (CAT) reporter gene was substituted by a polynucleotide sequence encoding firefly luciferase. Transfection of green monkey CV-1 cells was carried out using the calcium phosphate coprecipitation method described in Molecular Cloning: A Laboratory Manual (Sambrook et al. eds. Cold Spring Harbor Lab Publ. 1989). CV-1 cells were plated at a density of 4×10^4/well in 12 well multiwell plates and transiently transfected with a calcium phosphate precipitate containing 0.7 μg of reporter plasmid and 0.1 μg of receptor plasmid according to standard laboratory procedures. […]

RARα = biological target: T3, RARα (Homo sapiens, UniProt P10276); assay: as above; type: cell-based; set-up: expressed in transfected cells; host or cells: green monkey CV-1 cells; conditions: 10^−9 to 10^−6 M, 18 hours
T3 sequence (P10276 1-462): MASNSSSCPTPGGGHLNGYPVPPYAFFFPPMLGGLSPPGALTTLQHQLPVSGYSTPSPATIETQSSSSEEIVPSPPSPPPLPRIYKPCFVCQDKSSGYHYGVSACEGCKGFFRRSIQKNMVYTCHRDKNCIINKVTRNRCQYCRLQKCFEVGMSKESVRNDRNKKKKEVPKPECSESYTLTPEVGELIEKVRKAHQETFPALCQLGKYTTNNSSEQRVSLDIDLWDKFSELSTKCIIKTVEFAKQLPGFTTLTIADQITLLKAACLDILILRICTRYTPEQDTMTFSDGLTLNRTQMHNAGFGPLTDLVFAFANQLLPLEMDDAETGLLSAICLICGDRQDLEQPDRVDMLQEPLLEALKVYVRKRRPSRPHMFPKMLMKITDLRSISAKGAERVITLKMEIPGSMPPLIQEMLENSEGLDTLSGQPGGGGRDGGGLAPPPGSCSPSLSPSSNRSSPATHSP
Description: as §1

[1] = Example 4: retinoid-induced hypertriglyceridemia (serum triglycerides); type: in vivo, rats
Description: Male Fischer rats (6-7 weeks old, n=5) were treated by intragastric intubation with corn oil (vehicle), AGN 191659, AGN 193109 or a combination of AGN 191659 and AGN 193109. AGN 191659 and AGN 193109 were given as fine suspensions in corn oil.
Serum was separated from blood by low speed centrifugation. Total serum triglycerides (triglycerides plus glycerol) were measured with a standard spectrophotometric endpoint assay available commercially as a kit and adapted to a 96-well plate format. Serum triglyceride levels are expressed as the mean±SD. Means were compared statistically by one-way analysis of variance followed by Dunnett's test if significant differences were found. Differences were considered significant at P<0.05.

Cc1ccc(C2=CCC(C)(C)c3ccc(C#Cc4ccc(C(=O)O)cc4)cc32)cc1 [Compound 60, 4-[(5,6-dihydro-5,5-dimethyl-8-(4-methylphenyl)-2-naphthalenyl)ethynyl]benzoic acid]
inhibition of luciferase activity relative to ATRA alone (RARγ): greater than 50%
EC50 (nM) RAR-β (RARβ): No Activity
EC50 (nM) RAR-α (RARα): No Activity
serum triglycerides versus control ([1]; AGN 193109 with AGN 191659 at molar ratios of 1:1 and 5:1): reduced serum triglycerides to levels that were not significantly different from control
Serum Triglycerides ([1]; group B: AGN 193109 19.6 mg/kg oral alone, male Fischer rats): 52.4 ± 6.3 mg/dL
Serum Triglycerides ([1]; group D: AGN 193109 3.9 mg/kg + AGN 191659 3.7 mg/kg oral): 55.7 ± 14.7 mg/dL
Serum Triglycerides ([1]; group E: AGN 193109 19.6 mg/kg + AGN 191659 3.7 mg/kg oral): 72.7 ± 8.9 mg/dL

Reference: patent US6469028B1, “Synthesis and use of retinoid compounds having negative hormone and/or anatgonist activities” (Allergan, Inc., priority 1995, dated 2002)
